Test results reported in patent US10085990B2, “Tricyclic compounds as modulators of TNF-α synthesis and as PDE4 inhibitors” (vTv Therapeutics LLC, priority 2008, dated 2018).
pIC50: −log10 of the molar value. Counter-ions that a name gives are not always drawn.

Test system: TNF synthesis in human PBMC
Assay: Human PBMC TNF Synthesis Assay
Format: cell-based
Settings: LPS-stimulated human PBMC, overnight incubation, TNF ELISA; read-out: TNF inhib.
Experimental: Human PBMC TNF Synthesis Assay
Human PBMC were obtained by from a healthy human donor leuko pak. Typically, all donors were pre-screened for STD, HIV and have been given a physical by a physician. One to two ampoules were thawed at 37° C. and then resuspended in 45 to 85 mL of RPMI+10% FBS to a final concentration of 2.5×10^6 cells/mL. Resuspended cells were filtered to remove any large clumps.
Prepare compounds for addition to cells: All compounds were DMSO stocks at 20 mM. Working stock for cell testing were prepared as 4× concentrated material in RPMI+10% FBS. Compounds were added to a polypropylene block and then diluted with the appropriate amount of RPMI+10% FBS. Typically 2.6 μL of 20 mM stock was diluted to 650 μL final volume to yield an 80 μM starting concentration in the stocks. RPMI was added to DMSO stock by pipetting into the tube or block. The compounds were then serial diluted with RPMI+10% FBS. The final DMSO concentrations were not greater than 0.5% in the assay.
Compounds were added to the cells as 4× working stock. 50 μL of compound was prepared above is added to the cells and re-equilibrated in a humidified 5% CO2 incubator at 37° C. for 30 minutes.
A stock of LPS was prepared using RPMI+10% FBS. To prepare the stock, 2.8 μL of LPS (5 mg/mL; Sigma Cat #L3024) was added to 35 mL of media. 50 μL of the LPS in media was added to the cells. Control cultures without LPS received only RPMI+10% FBS. After an overnight incubation at 37° C., the cell culture supernatant was harvested and stored in a polypropylene 96 well plate.
Samples were tested for TNF as per the manufacturer's instructions (TNF ELISA; R&D Systems, Cat #DY210). The samples were serially diluted with PBS+1% BSA to the appropriate dilution condition for the cell prep, typically a 1:4 or 1:6 dilution.

Structure (SMILES) | pIC50
COc1cccc2c1ncc1c(=O)n(-c3cccc(Cl)c3)c(=O)n(C3CCN(C(=O)NC(C)C)CC3)c12 [Example 98, 4-[3-(3-Chloro-phenyl)-7-methoxy-2,4-dioxo-3,4-dihydro-2H-pyrimido[5,4-c]quinolin-1-yl]-piperidine-1-carboxylic acid isopropylamide] | 9.52
COc1cccc2c1ncc1c(=O)n(-c3ccccc3Cl)c(=O)n(C3CCC(C)CC3)c12 (stereo not shown) [Example 99, 3-(2-Chloro-phenyl)-7-methoxy-1-(4-methyl-cyclohexyl)-1H-pyrimido[5,4-c]quinoline-2,4-dione] | 7.70
COc1cccc2c1ncc1c(=O)n(-c3cccc(Cl)c3)c(=O)n([C@H]3CC[C@H](C(=O)O)CC3)c12 [Example 103, Trans-4-[3-(3-Chloro-phenyl)-7-methoxy-2,4-dioxo-3,4-dihydro-2H-pyrimido[5,4-c]quinolin-1-yl]-cyclohexanecarboxylic acid.hydrochloride] | 9.00
COc1cccc2c1ncc1c(=O)n(-c3cccc(Cl)c3)c(=O)n(C3CCCCC3)c12 [Example 106, 3-(3-Chloro-phenyl)-1-cyclohexyl-7-methoxy-1H-pyrimido[5,4-c]quinoline-2,4-dione] | 8.40
COc1cccc2c1ncc1c(=O)n(-c3ccc4c(c3)OCO4)c(=O)n(C3CCN(C(=O)OC(C)(C)C)CC3)c12 [Example 107, 4-(3-Benzo[1,3]dioxol-5-yl-7-methoxy-2,4-dioxo-3,4-dihydro-2H-pyrimido[5,4-c]quinolin-1-yl)-piperidine-1-carboxylic acid tert-butyl ester] | 9.00
COc1cccc2c1ncc1c(=O)n(-c3ccc4c(c3)OCO4)c(=O)n(C3CCNCC3)c12 [Example 108, 3-Benzo[1,3]dioxol-5-yl-7-methoxy-1-piperidin-4-yl-1H-pyrimido[5,4-c]quinoline-2,4-dione.dihydrochloride] | 6.35
COc1cccc2c1ncc1c(=O)n(-c3cccc(SC)c3)c(=O)n(C3CCCC3)c12 [Example 111, 1-Cyclopentyl-7-methoxy-3-(3-methylsulfanyl-phenyl)-1H-pyrimido[5,4-c]quinoline-2,4-dione] | 7.13
COc1cccc2c1ncc1c(=O)n(-c3cccc(S(C)(=O)=O)c3)c(=O)n(C3CCCC3)c12 [Example 112, 1-Cyclopentyl-3-(3-methanesulfonyl-phenyl)-7-methoxy-1H-pyrimido[5,4-c]quinoline-2,4-dione] | 6.55
COc1cccc2c1ncc1c(=O)n(-c3cccc(Cl)c3)c(=O)n([C@@H]3CCN(C(=O)OC(C)(C)C)C3)c12 [Example 113, 3-[(R)-3-(3-Chloro-phenyl)-7-methoxy-2,4-dioxo-3,4-dihydro-2H-pyrimido[5,4-c]quinolin-1-yl]-pyrrolidine-1-carboxylic acid tert-butyl ester] | 9.52
COc1cccc2c1ncc1c(=O)n(-c3cccc(Cl)c3)c(=O)n([C@@H]3CCNC3)c12 [Example 114, (R)-3-(3-Chloro-phenyl)-7-methoxy-1-pyrrolidin-3-yl-1H-pyrimido[5,4-c]quinoline-2,4-dione.dihydrochloride] | 7.51
COc1cccc2c1ncc1c(=O)n(-c3cccc(Cl)c3)c(=O)n([C@H]3CCN(C(=O)OC(C)(C)C)C3)c12 [Example 116, 3-[(S)-3-(3-Chloro-phenyl)-7-methoxy-2,4-dioxo-3,4-dihydro-2H-pyrimido[5,4-c]quinolin-1-yl]-pyrrolidine-1-carboxylic acid tert-butyl ester] | 8.70
COc1cccc2c1ncc1c(=O)n(-c3cccc(Cl)c3)c(=O)n([C@H]3CCNC3)c12 [Example 117, (S)-3-(3-Chloro-phenyl)-7-methoxy-1-pyrrolidin-3-yl-1H-pyrimido[5,4-c]quinoline-2,4-dione.dihydrochloride] | 6.00
COc1cccc2c1ncc1c(=O)n(-c3ccc4c(c3)OCCO4)c(=O)n(C3CCCC3)c12 [Example 120, 1-Cyclopentyl-3-(2,3-dihydro-benzo[1,4]dioxin-6-yl)-7-methoxy-1H-pyrimido[5,4-c]quinoline-2,4-dione] | 6.62
